Measured values from the supplement of paper PMC10307832.

How the values were obtained:
Assay in all cases: relative viability (nuclei count vs DMSO), 5 days (fraction); higher = more cells survive
[1] = compound: CCCS(=O)(=O)Nc1ccc(F)c(C(=O)c2c[nH]c3ncc(-c4ccc(Cl)cc4)cc23)c1F [Vemurafenib] + C[C@@H](Oc1cc(-c2cnn(C3CCNCC3)c2)cnc1N)c1c(Cl)ccc(F)c1Cl [Crizotinib] (partner 1 µM)
In short: (§1)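 Cells from lung cancer lines were seeded into 1536-well plates and, one day later, dosed by pin tool. Treatments were either a single drug or a fixed dose of an anchor drug with five library-drug doses (not always all listed) in √10 steps. After 5 days, nuclei were stained in a one-step fixation (final 0.05% Triton X-100, 1% formaldehyde, 1 ug/ml Hoechst) and counted on 4× images, and relative viability is the treated-to-vehicle nuclei ratio, as the median of duplicate plates.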

[2] = compound: Cc1nc(NC(=O)N2CCC[C@H]2C(N)=O)sc1-c1ccnc(C(C)(C)C(F)(F)F)c1 [Alpelisib] + Cc1cc(Nc2cc(N3CCN(C)CC3)nc(Sc3ccc(NC(=O)C4CC4)cc3)n2)n[nH]1 [Tozasertib] (partner 0.1 µM)
In short: as §1

[3] = compound: COc1cccc2cc(-c3nc([C@H]4CC[C@H](C(=O)O)CC4)n4ncnc(N)c34)[nH]c12 [OSI-027] + C[C@@H](Oc1cc(-c2cnn(C3CCNCC3)c2)cnc1N)c1c(Cl)ccc(F)c1Cl [Crizotinib] (partner 1 µM)
In short: as §1

[4] = compound: Cc1nc(NC(=O)N2CCC[C@H]2C(N)=O)sc1-c1ccnc(C(C)(C)C(F)(F)F)c1 [Alpelisib] + CC(C)C[C@H](NC(=O)[C@H](Cc1ccccc1)NC(=O)c1cnccn1)B(O)O [Bortezomib] (partner 0.002 µM)
In short: as §1

Cell Line	relative viability ([1]; first compound 0.03162 µM)	relative viability ([1]; first compound 0.1 µM)	relative viability ([1]; first compound 1 µM)	relative viability ([2]; first compound 0.04 µM)	relative viability ([2]; first compound 0.1265 µM)	relative viability ([2]; first compound 0.4 µM)	relative viability ([2]; first compound 1.265 µM)	relative viability ([2]; first compound 4 µM)	relative viability ([3]; first compound 0.01 µM)	relative viability ([3]; first compound 0.03162 µM)	relative viability ([3]; first compound 0.1 µM)	relative viability ([3]; first compound 0.3162 µM)	relative viability ([3]; first compound 1 µM)	relative viability ([4]; first compound 0.04 µM)	relative viability ([4]; first compound 0.4 µM)	relative viability ([4]; first compound 1.265 µM)	relative viability ([4]; first compound 4 µM)	relative viability ([1]; first compound 0.3162 µM)	relative viability ([4]; first compound 0.1265 µM)
ChaGo-K-1	1.07	1.14	1.13	0.202	0.202	0.211	0.194	0.197	1.38	1.02	1.2	0.997	0.922	0.921	1.07	0.839	0.791	–	–
NCI-H2347	0.655	0.657	0.69	0.649	0.582	0.682	0.39	0.361	0.668	0.609	0.673	0.388	0.405	0.784	1.12	1.08	0.876	0.397	0.849
PC-14	0.749	–	0.852	0.588	0.612	0.655	0.44	0.543	1	0.898	0.95	0.934	0.581	0.801	1.16	0.773	0.747	0.849	0.882
LXF-289	0.783	0.796	0.87	0.21	0.182	0.249	0.134	0.128	0.859	0.827	0.892	0.909	0.759	1	1.07	0.902	1.04	0.838	1.03
NCI-H596	0.97	1.01	1.09	0.859	0.893	0.86	0.56	0.374	0.946	1.07	1.05	0.838	0.734	1.17	1.15	0.666	0.44	0.992	0.801
NCI-H1355	1	0.963	1.05	0.539	0.489	0.528	0.441	0.373	0.969	0.937	0.998	0.847	0.276	1.15	1.29	1.09	0.961	0.992	1.23
NCI-H727	0.793	0.623	0.954	0.749	0.584	0.641	0.575	0.459	0.626	0.862	0.798	0.655	0.517	0.806	0.988	0.759	0.465	1.2	0.693
NCI-H2023	0.534	0.452	0.675	0.36	0.35	0.348	0.215	0.166	0.679	0.587	0.614	0.501	0.295	0.926	0.942	0.57	0.601	0.704	0.952
NCI-H2009	1.02	0.924	0.962	0.729	0.708	0.768	0.696	0.752	1.05	0.998	0.879	0.941	0.72	1.03	1.24	0.89	0.859	0.754	0.982
HCC-78	0.315	0.277	0.333	0.411	0.318	0.504	0.401	0.292	0.289	0.322	0.33	0.274	0.185	0.427	0.686	0.337	0.366	0.376	0.474
NCI-H322M	0.934	–	0.716	0.496	0.435	0.515	0.383	0.284	0.86	0.929	0.951	0.947	0.775	1.23	1.1	1.1	0.857	1.23	1.06
